What all share (assay): intrinsic tryptophan fluorescence titration
In experiment [1] the target is T1, Lili-Mip3.
T1 construct: recombinant, codon-optimised synthetic gene, secreted from S. cerevisiae FGY217 with Ost1 or alpha-factor signal; untagged pYES2 version likely (also made with C-terminal His tag)
The experiment is classed as binding, Diploptera punctata. Particulars: 50 mM sodium acetate pH 4.8, 100 mM NaCl, 25°C, delipidated protein. An excerpt: intrinsic tryptophan fluorescence titration on Lili-Mip3

Experiment [2] concerns the target T2, Lili-Mip1 (Diploptera punctata, UniProt Q6SVB6).
T2 construct: recombinant, codon-optimised synthetic gene, secreted from S. cerevisiae FGY217 with Ost1 or alpha-factor signal; untagged pYES2 version likely (also made with C-terminal His tag)
The experiment is classed as binding. An excerpt:
intrinsic tryptophan fluorescence titration on Lili-Mip1

Experiment [3] addresses T3, Lili-Mip2 (Diploptera punctata, UniProt Q6SVB5).
T3 construct: recombinant, codon-optimised synthetic gene, secreted from S. cerevisiae FGY217 with Ost1 or alpha-factor signal; untagged pYES2 version likely (also made with C-terminal His tag)
The experiment is classed as binding. An excerpt:
intrinsic tryptophan fluorescence titration on Lili-Mip2

[4] abbreviates: read-out: Myristoleic acid (14:1).
Setting [5] is: read-out: Palmitoleic acid (16:1).

In PMC10310036, “Variability in phenylalanine side chain conformations facilitates broad substrate tolerance of fatty acid binding in cockroach milk proteins” (PLOS ONE, 2023) one finds Kd data, which are given here for 7 compounds.

Like-named read-outs stand apart in the source and are kept apart here.

T2 sequence (Q6SVB6 entry or part of it): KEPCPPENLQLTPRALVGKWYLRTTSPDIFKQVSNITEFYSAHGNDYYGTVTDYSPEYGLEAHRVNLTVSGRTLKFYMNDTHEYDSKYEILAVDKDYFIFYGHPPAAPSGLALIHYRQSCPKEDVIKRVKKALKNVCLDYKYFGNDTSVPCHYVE
T3 sequence (Q6SVB5 entry or part of it): as the sequence (Q6SVB6 entry or part of it) above, with K87E, V125I, A132S, P150H, H152R, V154L counted along it

With `CCCCCCCCCCCCCC(=O)O` [Myristic acid], the Kd worked out at 1600 ± 510 nM in experiment [1] (read-out: Myristic acid (14:0)) and 1960 ± 830 nM in experiment [2] (read-out: Myristic acid (14:0)).
As to `CCCC/C=C\CCCCCCCC(=O)O` [Myristoleic acid], the figures for the Kd in experiment [3] (setting [4]), in experiment [1] (setting [4]) and in experiment [2] (setting [4]) were 2780 ± 500 nM, 680 ± 490 nM and 2060 ± 420 nM, respectively.
In the case of `CCCCC/C=C\C/C=C\CCCCCCCC(=O)O` [Linoleic acid], the Kd in experiment [3] (read-out: Linoleic acid (18:2)) is 2190 ± 1410 nM; in experiment [1] (read-out: Linoleic acid (18:2)), 270 ± 80 nM; in experiment [2] (read-out: Linoleic acid (18:2)), 1560 ± 330 nM.
On to `CCCCCCCCCCCCCCCCCC(=O)O` [Stearic acid], for which the Kd in experiment [3] (read-out: Stearic acid (18:0)) was found to be 2320 ± 1320 nM; in experiment [1] (read-out: Stearic acid (18:0)), 1780 ± 1740 nM; in experiment [2] (read-out: Stearic acid (18:0)) it was 1710 ± 560 nM.
`CCCCCCCCCCCCCCCC(=O)O` [Palmitic acid]: the Kd in experiment [3] (read-out: Palmitic acid (16:0)) stood at 1410 ± 880 nM; in experiment [1] (read-out: Palmitic acid (16:0)), 820 ± 610 nM; in experiment [2] (read-out: Palmitic acid (16:0)), 1760 ± 880 nM.
In the case of `CCCCCCCC/C=C\CCCCCCCC(=O)O` [Oleic acid], the Kd worked out at 1710 ± 1190 nM in experiment [3] (read-out: Oleic acid (18:1)), 240 ± 110 nM in experiment [1] (read-out: Oleic acid (18:1)) and 930 ± 310 nM in experiment [2] (read-out: Oleic acid (18:1)).
On to `CCCCCC/C=C\CCCCCCCC(=O)O` [Palmitoleic acid], for which the Kd in experiment [3] (setting [5]) turned out to be 2300 ± 1320 nM; in experiment [1] (setting [5]), 880 ± 620 nM; in experiment [2] (setting [5]) it was 1540 ± 910 nM.
